Measured values as given in patent US20060165644A1, “Cosmetics” (Fancl Corporation, priority 2002, published 2006).

System: Pseudomonas aeruginosa, Escherichia coli, Staphylococcus aureus
Assay: Evaluation of reduction effect for inoculated bacteria
Type: cell-based
Details: about 10^7 bacteria per 1 g sample; 7 days at 25° C.; plate count
Description: Pseudomonas aeruginosa, Escherichia coli, Staphylococcus aureus of about 10^7 were inoculated to the samples shown in Table 3 per 1 g of the respective samples. The viable microbe cell number were measured by plate count method after cultivation for 7 days at 25° C.
The viable microbe cell number on seventh day was calculated as a residual rate by defining the number of inoculated microbes to 100%, and the antibacterial activity of the samples was evaluated by classifying the residual rate into standards of four ranks as follow.

| SMILES | Antibacterial activity (residual rate of viable microbes) |
| --- | --- |
| CCCC(O)CO (centres unmarked) [Sample 10, 1,2-pentanediol] | ◯ (Residual rate lower than 10%, not lower than 0.01%) |
| CC(O)CCO (centres unmarked) [Sample 9, 1,3-butylene glycol] | ◯ (Residual rate lower than 10%, not lower than 0.01%) |
